For this test, the system named is tonic extensor seizure. Description: maximal electroshock test (MES), block of tonic extensor seizure. It is filed as in vivo, mice (male albino, Swiss Webster). The conditions noted are these: Mus musculus, ip, 0.5 h; mice, i.p., tested 30 minutes after injection; 1b in aqueous solution, Examples 2 and 3 as suspensions with Tween 80 and water; probit analysis. As for the experimental part: The compounds of formula (I) are useful as anticonvulsant agents. The anticonvulsant activity of the subject compounds was determined using a standard "maximal electroshock test" (MES). In this test, activity is indicated by a block of the tonic extensor seizure caused by application of an electric shock to mice via corneal electrodes, as described by Swinyard et al in J. Pharmacol. Exptl. Therap. 106, 319 (1952). A more recent description of current anticonvulsant drug screening is given in Swinyard et al in Epilepsia 19, 409 (1978). Non-fasted male albino mice of the Swiss Webster strain (Royal-Hart Laboratories, New Hampton, N.Y.) weighing 18-24 grams were used in this test. Six to eight groups of ten mice each were used per ED50 determination. The product of Example 1b was administered in aqueous solution while the compounds produced in Examples 2 and 3 were administered as suspensions prepared with Tween 80 and water. Testing was conducted at 30 minutes following intraperitoneal injection of the test compound. A group of ten mice injected with saline 10 ml/kg i.p. and tested 30 minutes later served as controls. ED50 's were calculated using a computerized probit analysis procedure.
In general terms: The maximal electroshock test induces tonic seizures with an electrical stimulus.
Take `CC1(C)OCC(COS(N)(=O)=O)O1` (stereo not drawn) [Example 1b, (2,2-Dimethyl-1,3-dioxolan-4-yl)methyl sulfamic acid ester]: the ED50 was 105 mg/kg.

For `CCCCCCCCCC1(C)OCC(COS(N)(=O)=O)O1` (stereo not drawn) [Example 2, (2-Methyl-2-nonyl-1,3-dioxolan-4-yl)methyl sulfamic acid ester Hydrate compound with 2-undecanone (10:1:2)], the ED50 is 319 mg/kg.

`NS(=O)(=O)OCC1COC2(CCCCC2)O1` (stereo not drawn) [Example 3, (1,4-Dioxaspiro[4.5]dec-2-yl)methyl Sulfamic acid ester] showed an ED50 of 169 mg/kg.

One may read the ED50 as the midpoint of the dose-response relation. Higher therefore signals a need for a large dose.

These data come from patent publication US4591601A, “Anticonvulsant dioxolane methane sulfamates” (McNeilab, Inc., priority 1985, dated 1986).
